Measured values published in patent publication US9233964B2, “Sulfamide piperazine derivatives as protein tyrosine kinase inhibitors and pharmaceutical use therof” (LEO PHARMA A/S, priority 2011, dated 2016).

Legend:
Format in all cases: biochemical
[1] = target: T1, JAK1 (Homo sapiens, UniProt P23458); experiment: JAK kinase assay (HTRF, phosphorylation of synthetic peptide), JAK1; conditions: catalytic domain, ATP at Km (7 μM); read-out: JAK1 kinase inhibitory activity (EC50)
T1 construct: JAK1 (aa 850-1154) and TYK2 (aa 871-1187) are expressed with an N-terminally fused GST-tag; GST (N); purchased Carna Biosciences, Inc; host or cells: baculovirus expression system
T1 sequence (P23458 850-1154): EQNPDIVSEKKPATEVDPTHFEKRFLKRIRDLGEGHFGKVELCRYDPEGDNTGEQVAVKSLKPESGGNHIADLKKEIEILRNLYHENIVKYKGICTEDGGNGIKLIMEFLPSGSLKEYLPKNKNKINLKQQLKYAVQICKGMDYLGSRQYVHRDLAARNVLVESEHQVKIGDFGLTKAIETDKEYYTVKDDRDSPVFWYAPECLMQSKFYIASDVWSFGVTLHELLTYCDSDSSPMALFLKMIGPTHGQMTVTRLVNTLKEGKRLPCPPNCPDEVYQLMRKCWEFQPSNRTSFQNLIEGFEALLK
Procedure, shortened: (§1)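 Catalytic-domain human JAK1 (GST-tagged, aa 850-1154) or His-tagged JAK2, baculovirus-expressed, phosphorylated 1 µM biotinylated TK peptide at Km ATP (JAK1 7 µM, 10 mM MgCl2, 50 nM SEB; JAK2 4 µM, 5 mM MgCl2) in pH 7.0 Hepes, 20-30 min RT. EDTA stop; overnight streptavidin-XL665/cryptate HTRF read.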

[2] = target: T2, JAK2 (Homo sapiens, UniProt O60674); experiment: JAK kinase assay (HTRF, phosphorylation of synthetic peptide), JAK2; conditions: catalytic domain, ATP at Km (4 μM); read-out: JAK2 kinase inhibitory activity (EC50)
T2 construct: All four purified enzymes contain only the catalytic domain; His (N); purchased Carna Biosciences, Inc; host or cells: baculovirus expression system
T2 sequence (O60674 849-1124 limits assumed): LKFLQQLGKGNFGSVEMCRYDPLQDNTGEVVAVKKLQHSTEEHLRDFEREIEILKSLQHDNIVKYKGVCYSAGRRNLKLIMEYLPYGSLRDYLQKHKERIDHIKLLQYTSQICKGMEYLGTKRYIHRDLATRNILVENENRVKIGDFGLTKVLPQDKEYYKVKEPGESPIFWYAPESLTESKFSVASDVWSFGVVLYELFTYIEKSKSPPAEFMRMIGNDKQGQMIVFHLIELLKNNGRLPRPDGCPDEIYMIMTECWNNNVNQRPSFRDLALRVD
Procedure, shortened: as §1

[3] = target: T3, JAK3 (Homo sapiens, UniProt P52333); experiment: JAK kinase assay (HTRF, phosphorylation of synthetic peptide), JAK3; conditions: catalytic domain, ATP at Km (2 μM); read-out: JAK3 kinase inhibitory activity (EC50)
T3 construct: All four purified enzymes contain only the catalytic domain; His (N); purchased Carna Biosciences, Inc; host or cells: baculovirus expression system
T3 sequence (P52333 822-1111 limits assumed): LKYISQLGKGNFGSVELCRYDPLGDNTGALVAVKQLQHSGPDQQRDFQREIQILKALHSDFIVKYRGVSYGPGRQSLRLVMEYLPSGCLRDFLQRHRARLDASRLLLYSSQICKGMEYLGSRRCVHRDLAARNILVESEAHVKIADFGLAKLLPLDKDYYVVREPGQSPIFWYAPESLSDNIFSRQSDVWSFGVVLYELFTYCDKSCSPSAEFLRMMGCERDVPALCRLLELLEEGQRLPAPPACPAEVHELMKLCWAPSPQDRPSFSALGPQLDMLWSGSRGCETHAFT

[4] = target: T4, TYK2 (Homo sapiens, UniProt P29597); experiment: JAK kinase assay (HTRF, phosphorylation of synthetic peptide), TYK2; conditions: catalytic domain, ATP at Km (13 μM); read-out: TYK2 kinase inhibitory activity (EC50)
T4 construct: JAK1 (aa 850-1154) and TYK2 (aa 871-1187) are expressed with an N-terminally fused GST-tag; GST (N); purchased Carna Biosciences, Inc; host or cells: baculovirus expression system
T4 sequence (P29597 871-1187): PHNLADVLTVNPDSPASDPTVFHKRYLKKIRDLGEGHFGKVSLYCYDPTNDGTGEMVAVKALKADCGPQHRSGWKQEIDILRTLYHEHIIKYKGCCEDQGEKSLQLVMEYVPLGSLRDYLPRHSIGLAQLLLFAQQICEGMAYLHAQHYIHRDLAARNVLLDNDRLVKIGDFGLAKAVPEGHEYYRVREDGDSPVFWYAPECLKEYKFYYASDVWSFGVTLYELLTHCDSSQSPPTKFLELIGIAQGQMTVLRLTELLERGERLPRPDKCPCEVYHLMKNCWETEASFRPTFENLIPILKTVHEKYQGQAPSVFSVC
Procedure, shortened: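 1 µM biotinylated TK peptide at Km ATP in pH 7.0 Hepes, 20-30 min RT. EDTA stop; overnight streptavidin-XL665/cryptate HTRF read.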

Structure (SMILES) | EC50 [1] [nM] | EC50 [2] [nM] | EC50 [3] [nM] | EC50 [4] [nM]
O=S(=O)(N(CCc1ccccc1)CCn1cccn1)N1CCN(c2ncnc3[nH]ccc23)CC12CC2 [Example 24, 7-(7H-Pyrrolo[2,3-d]pyrimidin-4-yl)-4,7-diaza-spiro[2.5]octane-4-sulfonic acid phenethyl-(2-pyrazol-1-yl-ethyl)-amide] | < 100 | < 100 | < 100 | 100 to 500
CN(Cc1ccc(S(N)(=O)=O)cc1)S(=O)(=O)N1CCN(c2ncnc3[nH]ccc23)CC12CC2 [Example 91, N-methyl-5-(7H-pyrrolo[2,3-d]pyrimidin-4-yl)-N-[(4-sulfamoylphenyl)methyl]-5,8-diazaspiro[2.5]octane-8-sulfonamide] | < 100 | < 100 | < 100 | < 100
CC(C)NS(=O)(=O)N1CCN(c2ncnc3[nH]ccc23)CC12CC2 [Example 50, 7-(7H-Pyrrolo[2,3-d]pyrimidin-4-yl)-4,7-diaza-spiro[2.5]octane-4-sulfonic acid isopropylamide] | 100 to 500 | < 100 | 100 to 500 | 100 to 500
CC(C)N(CCO)S(=O)(=O)N1CCN(c2ncnc3[nH]ccc23)CC12CC2 [Example 97, N-(2-hydroxyethyl)-N-isopropyl-5-(7H-pyrrolo[2,3-d]pyrimidin-4-yl)-5,8-diazaspiro[2.5]octane-8-sulfonamide] | < 100 | < 100 | 100 to 500 | > 500
CN(C(=O)C1CCS(=O)(=O)C1)S(=O)(=O)N1CCN(c2ncnc3[nH]ccc23)CC12CC2 (centres unmarked) [Example 135, N-methyl-1,1-dioxo-N-[[5-(7H-pyrrolo[2,3-d]pyrimidin-4-yl)-5,8-diazaspiro[2.5]octan-8-yl]sulfonyl]thiolane-3-carboxamide] | < 100 | < 100 | < 100 | 100 to 500
O=S(=O)(N(CCN1CCOCC1)C1CCC1)N1CCN(c2ncnc3[nH]ccc23)CC12CC2 [Example 106, N-cyclobutyl-N-(2-morpholinoethyl)-5-(7H-pyrrolo[2,3-d]pyrimidin-4-yl)-5,8-diazaspiro[2.5]octane-8-sulfonamide] | < 100 | < 100 | 100 to 500 | > 500
CC(O)CC(=O)N1CCC(CN(C)S(=O)(=O)N2CCN(c3ncnc4[nH]ccc34)CC23CC3)C1 (centres unmarked) [Example 124, N-[[1-(3-hydroxybutanoyl)pyrrolidin-3-yl]methyl]-N-methyl-5-(7H-pyrrolo[2,3-d]pyrimidin-4-yl)-5,8-diazaspiro[2.5]octane-8-sulfonamide] | < 100 | < 100 | 100 to 500 | > 500
CN(CC1CCCCC1)S(=O)(=O)N1CCN(c2ncnc3[nH]ccc23)CC12CC2 [Example 15, 7-(7H-Pyrrolo[2,3-d]pyrimidin-4-yl)-4,7-diaza-spiro[2.5]octane-4-sulfonic acid cyclohexylmethyl-methyl-amide] | < 100 | < 100 | < 100 | 100 to 500
CN(CC1CCN(C=O)C1)S(=O)(=O)N1CCN(c2ncnc3[nH]ccc23)CC12CC2 (centres unmarked) [Example 128, N-[(1-formylpyrrolidin-3-yl)methyl]-N-methyl-5-(7H-pyrrolo[2,3-d]pyrimidin-4-yl)-5,8-diazaspiro[2.5]octane-8-sulfonamide] | < 100 | < 100 | < 100 | > 500
CN(Cc1cccc(F)c1)S(=O)(=O)N1CCN(c2ncnc3[nH]ccc23)CC12CC2 [Example 78, N-[(3-fluorophenyl)methyl]-N-methyl-5-(7H-pyrrolo[2,3-d]pyrimidin-4-yl)-5,8-diazaspiro[2.5]octane-8-sulfonamide] | < 100 | < 100 | < 100 | 100 to 500
CN(CCOc1ccc(C#N)cc1)S(=O)(=O)N1CCN(c2ncnc3[nH]ccc23)CC12CC2 [Example 72, N-[2-(4-cyanophenoxy)ethyl]-N-methyl-5-(7H-pyrrolo[2,3-d]pyrimidin-4-yl)-5,8-diazaspiro[2.5]octane-8-sulfonamide] | < 100 | < 100 | 100 to 500 | > 500
CN(CCOc1ccccc1C#N)S(=O)(=O)N1CCN(c2ncnc3[nH]ccc23)CC12CC2 [Example 70, N-[2-(2-cyanophenoxy)ethyl]-N-methyl-5-(7H-pyrrolo[2,3-d]pyrimidin-4-yl)-5,8-diazaspiro[2.5]octane-8-sulfonamide] | < 100 | < 100 | 100 to 500 | > 500
CN(C(=O)C1CCCC1)S(=O)(=O)N1CCN(c2ncnc3[nH]ccc23)CC12CC2 [Example 132, N-methyl-N-[[5-(7H-pyrrolo[2,3-d]pyrimidin-4-yl)-5,8-diazaspiro[2.5]octan-8-yl]sulfonyl]cyclopentanecarboxamide] | < 100 | < 100 | 100 to 500 | 100 to 500

The remaining lines, values ahead:

EC50 [1] [nM] | EC50 [2] [nM] | EC50 [3] [nM] | EC50 [4] [nM] | Structure (SMILES)
< 100 | < 100 | < 100 | 100 to 500 | CN(CC1CCCN(S(C)(=O)=O)C1)S(=O)(=O)N1CCN(c2ncnc3[nH]ccc23)CC12CC2 (centres unmarked) [Example 160, N-methyl-N-[(1-methylsulfonyl-3-piperidyl)methyl]-5-(7H-pyrrolo[2,3-d]pyrimidin-4-yl)-5,8-diazaspiro[2.5]octane-8-sulfonamide]
< 100 | < 100 | 100 to 500 | > 500 | CN(CC1CCN(C(=O)CCC#N)CC1)S(=O)(=O)N1CCN(c2ncnc3[nH]ccc23)CC12CC2 [Example 152, N-[[1-(3-cyanopropanoyl)-4-piperidyl]methyl]-N-methyl-5-(7H-pyrrolo[2,3-d]pyrimidin-4-yl)-5,8-diazaspiro[2.5]octane-8-sulfonamide]
< 100 | < 100 | < 100 | 100 to 500 | COc1ccc(/C=N\S(=O)(=O)N2CCN(c3ncnc4[nH]ccc34)CC23CC3)cc1 [Int 49]
< 100 | < 100 | < 100 | 100 to 500 | CN(CC1CCS(=O)(=O)C1)S(=O)(=O)N1CCN(c2ncnc3[nH]ccc23)CC12CC2 (centres unmarked) [Example 165, N-[(1,1-dioxothiolan-3-yl)methyl]-N-methyl-5-(7H-pyrrolo[2,3-d]pyrimidin-4-yl)-5,8-diazaspiro[2.5]octane-8-sulfonamide]
< 100 | < 100 | < 100 | 100 to 500 | CN(CC1CCN(S(C)(=O)=O)CC1)S(=O)(=O)N1CCN(c2ncnc3[nH]ccc23)CC12CC2 [Example 158, N-methyl-N-[(1-methylsulfonyl-4-piperidyl)methyl]-5-(7H-pyrrolo[2,3-d]pyrimidin-4-yl)-5,8-diazaspiro[2.5]octane-8-sulfonamide]
< 100 | < 100 | < 100 | 100 to 500 | O=S(=O)(NC1COC1)N1CCN(c2ncnc3[nH]ccc23)CC12CC2 [Int 41]
< 100 | < 100 | 100 to 500 | 100 to 500 | CN(C[C@H]1CCCN1C(=O)CCC#N)S(=O)(=O)N1CCN(c2ncnc3[nH]ccc23)CC12CC2 [Example 187, N-[[(2R)-1-(3-cyanopropanoyl)pyrrolidin-2-yl]methyl]-N-methyl-5-(7H-pyrrolo[2,3-d]pyrimidin-4-yl)-5,8-diazaspiro[2.5]octane-8-sulfonamide]
100 to 500 | < 100 | 100 to 500 | > 500 | O=S(=O)(N(CC1CCC(F)(F)CC1)CC1CCC(F)(F)CC1)N1CCN(c2ncnc3[nH]ccc23)CC12CC2 [Example 150, N,N-bis[(4,4-difluorocyclohexyl)methyl]-5-(7H-pyrrolo[2,3-d]pyrimidin-4-yl)-5,8-diazaspiro[2.5]octane-8-sulfonamide]
< 100 | < 100 | 100 to 500 | > 500 | CN(C(=O)C1CCCS(=O)(=O)C1)S(=O)(=O)N1CCN(c2ncnc3[nH]ccc23)CC12CC2 (centres unmarked) [Example 140, N-methyl-1,1-dioxo-N-[[5-(7H-pyrrolo[2,3-d]pyrimidin-4-yl)-5,8-diazaspiro[2.5]octan-8-yl]sulfonyl]thiane-3-carboxamide]
< 100 | < 100 | 100 to 500 | 100 to 500 | O=S(=O)(NCc1ccccc1)N1CCN(c2ncnc3[nH]ccc23)CC12CC2 [Example 147, N-benzyl-5-(7H-pyrrolo[2,3-d]pyrimidin-4-yl)-5,8-diazaspiro[2.5]octane-8-sulfonamide]
